Columns and labels:
P2X2/3 = biological target: T1, P2X2/3 (Homo sapiens, UniProt P56373+Q9UBL9); experiment: P2X2/3 FLIPR intracellular calcium assay; format: cell-based; conditions: agonist at EC75, species (human or rat) not given
T1 sequence (Q9UBL9 1-471): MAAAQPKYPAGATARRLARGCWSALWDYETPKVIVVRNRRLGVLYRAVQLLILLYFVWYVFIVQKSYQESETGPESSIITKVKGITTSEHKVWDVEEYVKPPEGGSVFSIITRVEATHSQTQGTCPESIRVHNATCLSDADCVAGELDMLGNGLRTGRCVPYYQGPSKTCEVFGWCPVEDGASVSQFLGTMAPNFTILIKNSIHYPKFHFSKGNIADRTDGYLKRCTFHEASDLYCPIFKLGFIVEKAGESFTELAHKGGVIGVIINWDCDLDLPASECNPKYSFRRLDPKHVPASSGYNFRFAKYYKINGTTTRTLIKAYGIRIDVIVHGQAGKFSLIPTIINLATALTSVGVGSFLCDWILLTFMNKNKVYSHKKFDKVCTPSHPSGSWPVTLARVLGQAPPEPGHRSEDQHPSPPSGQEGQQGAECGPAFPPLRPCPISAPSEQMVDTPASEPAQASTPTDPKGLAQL
T1 sequence (P56373 1-397): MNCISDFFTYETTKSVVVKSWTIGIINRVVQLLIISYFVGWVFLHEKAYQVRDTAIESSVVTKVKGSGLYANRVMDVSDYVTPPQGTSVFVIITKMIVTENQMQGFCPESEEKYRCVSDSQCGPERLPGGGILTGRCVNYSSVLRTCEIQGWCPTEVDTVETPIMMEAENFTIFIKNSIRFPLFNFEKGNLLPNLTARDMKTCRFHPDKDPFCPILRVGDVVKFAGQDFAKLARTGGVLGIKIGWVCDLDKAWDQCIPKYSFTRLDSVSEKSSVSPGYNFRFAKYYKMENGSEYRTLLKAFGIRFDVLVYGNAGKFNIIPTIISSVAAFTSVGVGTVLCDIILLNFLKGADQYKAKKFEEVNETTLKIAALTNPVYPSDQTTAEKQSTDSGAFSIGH
Source text: The FLIPR® assay utilizes cells which express human or rat P2X3 or P2X2/3 receptors. Recombinant cells expressing hP2X3 (Cat#6188) and hP2X2/3 (Cat#6179) were procured from Chantest Corp. Rat P2X2 (NCBI Accession No: U14414) was amplified by PCR from PC12 cDNA (a rat adrenal medulla cell line). The PCR product obtained containing the protein coding sequence of rat P2X2 was cloned into EcoRV-digested and dephosphorylated vector pIRES-puro3 within the multiple cloning site (MCS). See, FIG. 1A.
(§1) Transfection was carried out using super-coiled constructs (purified using QIAGEN kit) in antibiotic free, serum free DMEM using Lipofectamine® 2000 (Invitrogen) transfection agent. The DNA constructs rat P2X2 in pIRES-Puro3 and rat P2X3 in pCDNA5/TO were co-transfected into TRex293 cells in order to generate the rP2X2/3 stable line. 50 μg/mL hygromycin (Invitrogen) and 0.5 μg/mL puromycin (Fermentek) were used for selection of stable clones of rP2X2/3. Rat P2X3 in pCDNA5/TO DNA construct was transfected to CHO-TRex cells to generate the rP2×3 stable line and 500 μg/mL hygromycin (Invitrogen) was used as selection antibiotic. Transfected stable colonies were then functionally verified and robust clones suitable for assay were clonally purified through dilutions.
(§2) Cryo-vial containing 6×10^6 cells (human P2X3-HEK/human P2X2/3-TRex293/rat P2X2/3-TRex293/rat P2X3 TRex-CHO) was thawed in a 37° C. water bath. Cells were suspended in 20 mL of respective cell plating media (See annexure for composition) in a 50 mL centrifuge tube. The cell viability was checked with the help of Trypan Blue dye. Upon washing, cells were plated in a black 384-well clear bottomed, sterile poly-D-lysine coated plate such that, each well contained 10,000 cells (15,000/well for hP2X3) in 30 μL cell plating media. The plate was incubated in a 5% CO2 incubator at 37° C. for 24 h.
(§3) The next day, prior to the assay, the cell plating media was removed from each well by decanting and gentle tapping. Thirty μL of FLIPR Calcium 4 dye solution was added to each well. The plate was incubated at 37° C. for 45 min (60 min for hP2X3). The plate was next equilibrated at room temperature for 15 minutes before placing it in a 384 well FLIPR for the assay.
Compounds were dissolved in DMSO and serially diluted following 11 point half log (3.16 fold) dilution with a starting concentration of 2 mM. Dilutions were mixed with assay buffer just before performing the assay.
(§4) Compounds were added to the respective wells of the assay-ready cell plate with the help of the FLIPR and fluorescence readings were captured for 5 min to observe any possible agonistic property of the compounds. The plate was then incubated at room temperature for 15 min. The cells were stimulated with respective agonist EC75 concentration and the fluorescence readings were captured for another 5 min by FLIPR. The difference in fluorescence readings in presence of the compounds were compared with that of the control wells (wells having no compound) to calculate the inhibitory potency of the compounds. The IC50 values of the compounds were determined using the Graph pad Prism software.
(ii) Cell Plating Media for hP2X3-HEK and hP2X2/3-TRex293 Cells • DMEM/F12 (1:1) HAM media (Invitrogen; Cat#11039) • 1×NEAA (Invitrogen; Cat#11140) • 25 mM HEPES (Invitrogen; Cat#15630) • 1 mM sodium pyruvate (Invitrogen; Cat#11360) • 10% tetracycline negative FBS (PAA; Cat# A15-209) • 1 μg/mL doxycycline (Clontech; Cat#63131) [for hP2X2/3-TRex293 cells only]
(iii) Cell Plating Media for rP2X2/3-TRex293 Cells • DMEM media (Invitrogen; Cat#11965) • 25 mM HEPES (Invitrogen; Cat#15630) • 10% tetracycline negative FBS (PAA; Cat# A15-209) • 1 μg/mL Doxycycline (Clontech; Cat#63131)
(v) Assay Buffer Composition • HBSS (Invitrogen Cat#14025) • 20 mM HEPES (Invitrogen Cat#15630) • 0.01% F127 (Sigma Cat# P2443) • 1.8 mM CaCl2 (Sigma Cat# C5080) • pH adjusted to 7.4 […]

P2X3 = biological target: T2, P2X3 (UniProt P56373); experiment: P2X3 FLIPR intracellular calcium assay; format: cell-based; conditions: agonist at EC75, species (human or rat) not given
T2 sequence (P56373 1-397): T1 sequence (P56373 1-397)
Source text: The FLIPR® assay utilizes cells which express human or rat P2X3 or P2X2/3 receptors. […] The PCR product obtained containing the protein coding sequence of rat P2X2 was cloned into EcoRV-digested and dephosphorylated vector pIRES-puro3 within the multiple cloning site (MCS). See, FIG. 1A.
Rat P2X3 (NCBI Accession No: X91167) was amplified by PCR from rat brain cDNA. The PCR product obtained containing the protein coding sequence of rat P2X3 was cloned into EcoRV-digested and dephosphorylated vector pCDNA-Hygro within the multiple cloning site (MCS) (FIG. 1B). Rat P2X3 cloned into pcDNA-Hygro was then subcloned into pcDNA-5/TO at HindIII (5′) and XhoI (3′) sites within the multiple cloning site (MCS) of the vector (FIG. 1C).
as §1, §2, §3
Dilutions were mixed with assay buffer just before performing the assay.
as §4
(vi) Dye Solution Composition • 1×FLIPR Calcium 4 dye in assay buffer (Molecular devices Cat# R8141) • 1.8 mM Probenecid (Sigma Cat# P8761) • pH adjusted to 7.4

| SMILES | IC50 (P2X2/3) | IC50 (P2X3) |
| --- | --- | --- |
| Cc1noc(C(C)NC(=O)c2cc(-n3nnnc3C(F)F)c3ncc(-c4ccc(C)s4)n3c2)n1 (stereo in doubt) [Example 19, (R)-8-(5-(Difluoromethyl)-1H-tetrazol-1-yl)-N-(1-(3-methyl-1,2,4-oxadiazol-5-yl)ethyl)-3-(5-methylthiophen-2-yl)imidazo[1,2-a]pyridine-6-carboxamide] | 1 to 100 nM | 1 to 100 nM |
| CCc1nnc(-c2cc(C(=O)N[C@@H](C)c3nnc[nH]3)cn3c(-c4ccc(C)s4)cnc23)o1 [Example 1, (S)—N-(1-(4H-1,2,4-Triazol-3-yl)ethyl)-8-(5-ethyl-1,3,4-oxadiazol-2-yl)-3-(5-methylthiophen-2-yl)imidazo[1,2-a]pyridine-6-carboxamide] | 1000 to 10000 nM | 100 to 1000 nM |
| Cc1ccc(CNC(=O)c2cc(-n3c(C)cnc3C)c3ncc(-c4ccc(C)s4)n3c2)cn1 [Example 2, 8-(2,5-Dimethyl-1H-imidazol-1-yl)-N-((6-methylpyridin-3-yl)methyl)-3-(5-methylthiophen-2-yl)imidazo[1,2-a]pyridine-6-carboxamide] | 100 to 1000 nM | > 10000 nM |
| Cc1ccc(-c2cnc3c(-n4c(C)nnc4C)cc(C(=O)N[C@@H](C)c4nnc[nH]4)cn23)s1 [Example 3, (S)—N-(1-(4H-1,2,4-Triazol-3-yl)ethyl)-8-(3,5-dimethyl-4H-1,2,4-triazol-4-yl)-3-(5-methylthiophen-2-yl)imidazo[1,2-a]pyridine-6-carboxamide] | 100 to 1000 nM | 1000 to 10000 nM |
| Cc1ccc(-c2cnc3c(-n4nncc4C(F)F)cc(C(=O)N[C@@H](C)c4nnc[nH]4)cn23)s1 [Example 4, (S)—N-(1-(4H-1,2,4-Triazol-3-yl)ethyl)-8-(5-(difluoromethyl)-1H-1,2,3-triazol-1-yl)-3-(5-methylthiophen-2-yl)imidazo[1,2-a]pyridine-6-carboxamide] | 1 to 100 nM | 1 to 100 nM |
| Cc1ccc(CNC(=O)c2cc(-n3nncc3C(F)F)c3ncc(-c4nnc(C)s4)n3c2)cn1 [Example 5, 8-(5-(Difluoromethyl)-1H-1,2,3-triazol-1-yl)-3-(5-methyl-1,3,4-thiadiazol-2-yl)-N-((6-methylpyridin-3-yl)methyl)imidazo[1,2-a]pyridine-6-carboxamide] | 100 to 1000 nM | 100 to 1000 nM |
| CCc1ccnn1-c1cc(C(=O)NCc2ccc(C)nc2)cn2c(-c3ccc(C)s3)cnc12 [Example 6, 8-(5-Ethyl-1H-pyrazol-1-yl)-N-((6-methylpyridin-3-yl)methyl)-3-(5-methylthiophen-2-yl)imidazo[1,2-a]pyridine-6-carboxamide] | 100 to 1000 nM | > 10000 nM |
| Cc1ccc(-c2cnc3c(Nc4ccccc4)cc(C(=O)N[C@@H](C)c4nnc[nH]4)cn23)s1 [Example 7, (S)—N-(1-(4H-1,2,4-Triazol-3-yl)ethyl)-3-(5-methylthiophen-2-yl)-8-(phenylamino)imidazo[1,2-a]pyridine-6-carboxamide] | 100 to 1000 nM | 1 to 100 nM |
| Cc1ccc(-c2cnc3c(-c4cnn(C)c4)cc(C(=O)N[C@@H](C)c4nnc[nH]4)cn23)s1 [Example 8, (S)—N-(1-(4H-1,2,4-Triazol-3-yl)ethyl)-8-(1-methyl-1H-pyrazol-4-yl)-3-(5-methylthiophen-2-yl)imidazo[1,2-a]pyridine-6-carboxamide] | 100 to 1000 nM | 1 to 100 nM |
| CCCSc1cnc2c(N3CCC(C)CC3)cc(C(=O)N[C@@H](C)c3nnc[nH]3)cn12 [Example 10, (S)—N-(1-(4H-1,2,4-Triazol-3-yl)ethyl)-8-(4-methylpiperidin-1-yl)-3-(propylthio)imidazo[1,2-a]pyridine-6-carboxamide] | 1000 to 10000 nM | 100 to 1000 nM |
| Cc1ccc(-c2cnc3c(N4CCC(C)CC4)cc(C(=O)N[C@@H](C)c4nnc[nH]4)cn23)s1 [Example 11, (S)—N-(1-(4H-1,2,4-Triazol-3-yl)ethyl)-8-(4-methylpiperidin-1-yl)-3-(5-methylthiophen-2-yl)imidazo[1,2-a]pyridine-6-carboxamide] | 100 to 1000 nM | 1 to 100 nM |
| Cc1ccc(-c2cnc3c(N4CCC(C)(C(N)=O)CC4)cc(C(=O)N[C@@H](C)c4nnc[nH]4)cn23)s1 [Example 12, (S)—N-(1-(4H-1,2,4-Triazol-3-yl)ethyl)-8-(4-carbamoyl-4-methylpiperidin-1-yl)-3-(5-methylthiophen-2-yl)imidazo[1,2-a]pyridine-6-carboxamide] | 1 to 100 nM | 1 to 100 nM |
| Cc1ccc(CNC(=O)c2cc(N3CCN(C(N)=O)CC3)c3ncc(-c4ccc(C)s4)n3c2)cn1 [Example 13, 8-(4-Carbamoylpiperazin-1-yl)-N-((6-methylpyridin-3-yl)methyl)-3-(5-methylthiophen-2-yl)imidazo[1,2-a]pyridine-6-carboxamide] | 100 to 1000 nM | > 10000 nM |
| Cc1ccc(CNC(=O)c2cc(-n3nncc3C(F)F)c3ncc(-c4ccc(C)s4)n3c2)cn1 [Example 27] |  | 1 to 100 nM |
| Cc1ccc(-c2cnc3c(N4CCC(F)(F)CC4)cc(C(=O)N[C@@H](C)c4cc[nH]n4)cn23)s1 [Example 143] |  | 1000 to 10000 nM |
| COc1ccc(CNC(=O)c2cc(-n3nnnc3C3CCC3)c3ncc(-c4ccc(C)s4)n3c2)cc1 [Example 163] |  | > 10000 nM |
